According to the supplement of paper PMC11424490:

Experiments:
SW837 [1] = experiment: fitted bottom plateau of viability curve, % of DMSO control; higher = less maximal inhibition; extreme values may be limits of the assay
Outline: (§1)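 Relative IC50 values, averaged over replicates, and lower plateaus were obtained by four-parameter nonlinear fitting of percent-of-control viability data, normalised to DMSO controls. Viability was read as CellTiter-Glo luminescence after single-compound dose series had been incubated for 72 h (NCI-H2122, NCI-H358) or 144 h (SW837).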

NCI-H2122 [2] = experiment: as above
Outline: as §1

NCI-H358 [3] = experiment: as above
Outline: as §1

SW837 [4] = experiment: relative IC50 of cell viability (CellTiter-Glo); higher = less potent
Outline: as §1

NCI-H2122 [5] = experiment: as above
Outline: as §1

NCI-H358 [6] = experiment: as above
Outline: as §1

SMILES	fitted bottom plateau of viability curve (SW837 [1]) [%]	fitted bottom plateau of viability curve (NCI-H2122 [2]) [%]	fitted bottom plateau of viability curve (NCI-H358 [3]) [%]	relative IC50 of cell viability (SW837 [4]) [nM]	relative IC50 of cell viability (NCI-H2122 [5]) [nM]	relative IC50 of cell viability (NCI-H358 [6]) [nM]
COc1cc(Nc2c(C#N)cnc3cc(OCCCN4CCN(C)CC4)c(OC)cc23)c(Cl)cc1Cl [Bosutinib] (top concentration tested 10000 nM)	12.1	23.5	25.5	4350	3830	1510
Cc1nc(Nc2ncc(C(=O)Nc3c(C)cccc3Cl)s2)cc(N2CCN(CCO)CC2)n1 [Dasatinib] (top concentration tested 10000 nM)	0	78.1	0	7040		1360
COc1cccc2c1C(=O)c1c(O)c3c(c(O)c1C2=O)C[C@@](O)(C(C)=O)C[C@@H]3O[C@H]1C[C@H](N)[C@H](O)[C@H](C)O1 [Daunorubicin] (top concentration tested 1000 nM)	0.5	17.2	1.56	111	120	27.6
C#Cc1cccc(Nc2ncnc3cc(OCCOC)c(OCCOC)cc23)c1 [Erlotinib] (top concentration tested 10000 nM)	82.2	29.5	12.3		4260	1300
COc1cc(Nc2ncc(F)c(Nc3ccc4c(n3)N(COP(=O)(O)O)C(=O)C(C)(C)O4)n2)cc(OC)c1OC [Fostamatinib] (top concentration tested 9999.9 nM)	47.6	37.4	0	1680	8750	2060
C[C@H](Nc1ccc2c(c1)OCCn1cc(N3C(=O)OC[C@H]3C(F)F)nc1-2)C(N)=O [GDC-0077] (top concentration tested 10000 nM)	68.7	48.4	23.1		867	712
COc1cc2ncnc(Nc3ccc(F)c(Cl)c3)c2cc1OCCCN1CCOCC1 [Gefitinib] (top concentration tested 9999.9 nM)	77.7	37.8	19.7		3100	883
CCS(=O)(=O)Nc1ccc2c(c1)/C(=C(/Nc1ccc(CN3CCCCC3)cc1)c1ccccc1)C(=O)N2 [Hesperadin] (top concentration tested 10000 nM)	0	5.85	0	366	19	43.7
O=C(O)CNC(=O)c1c(O)c2ccccc2n(Cc2ccccc2)c1=O [IOX2] (top concentration tested 50000 nM)	52.6	52.8	2.49		51400	10800
C=CC(=O)N1CCC[C@@H](n2nc(-c3ccc(Oc4ccccc4)cc3)c3c(N)ncnc32)C1 [Ibrutinib] (top concentration tested 10000 nM)	76.6	76.7	12.4			262
Cc1c(CN2CCC(Nc3ncnc4sc(CC(F)(F)F)cc34)CC2)ccc2[nH]c(C#N)cc12 [MI-463] (top concentration tested 5000 nM)	86.6	79.5	0			3910
NC1(c2ccc(-c3nc4ccn5c(=O)[nH]nc5c4cc3-c3ccccc3)cc2)CCC1 [MK-2206] (top concentration tested 10000 nM)	79.9	31.8	33.4		2160	1990
CC(C)n1nc(-c2ccc3oc(N)nc3c2)c2c(N)ncnc21 [MLN-0128] (top concentration tested 99.893 nM)	85.3	22.6	17.7		25.9	27.2
C=C(F)C(=O)N1CCN(c2nc(OC[C@@H]3CCCN3C)nc3c2CCN(c2cccc4cccc(Cl)c24)C3)C[C@@H]1CC#N [MRTX849 / Adagrasib] (top concentration tested 999.97 nM)	0.0244	7.33	1.24	304	39.7	25.2
COc1cc(N2CCC(N3CCN(C)CC3)CC2)ccc1Nc1ncc(Cl)c(Nc2ccccc2S(=O)(=O)C(C)C)n1 [NVP-TAE684] (top concentration tested 10000 nM)	56.5	0.655	3.01		384	922
CC(=O)c1c(C)c2cnc(Nc3ccc(N4CCNCC4)cn3)nc2n(C2CCCC2)c1=O [Palbociclib] (top concentration tested 5000 nM)	93.5	59.8	34.2			859
C[C@@H]1OCC2(CCN(c3cnc(Sc4ccnc(N)c4Cl)c(N)n3)CC2)[C@@H]1N [TNO155] (top concentration tested 10000 nM)	94.5	69.5	29.4			499
Cc1nc(-c2cn3c(n2)-c2ccc(-c4cnn(C(C)(C)C(N)=O)c4)cc2OCC3)n(C(C)C)n1 [Taselisib] (top concentration tested 10000 nM)	86	16.9	1.64		290	470
COc1cc2/c(=N/c3ccc(Br)cc3F)nc[nH]c2cc1OCC1CCN(C)CC1 [Vandetanib] (top concentration tested 10000 nM)	82.1	49.8	3.22		2070	1340
CCNC(=O)C[C@@H]1N=C(c2ccc(Cl)cc2)c2cc(OC)ccc2-n2c(C)nnc21 [iBET-762] (top concentration tested 10000 nM)	37.6	59.6	53	839		1430
